Data set [1] can be described thus: Plasma protein binding in human plasma at 10 uM incubated for 6 hrs by LC-MS/MS based equilibrium dialysis method. The data set is classed as ADME, cell-free. Conditions: read-out: PPB (converted). Background: In equilibrium dialysis free small molecules cross a membrane that holds back macromolecules.
Data set [2] can be described thus: Cytotoxicity against human HaCaT cells assessed as reduction in cell viability by MTT assay. The data set is classed as toxicity, cell-based.
Data set [3] can be described thus: Cytotoxicity against rat PC-12 cells assessed as reduction in cell viability by MTT assay. The data set is classed as toxicity, cell-based. A general note: Tetrazolium dyes change colour on reduction, which living cells bring about.
Data set [4] deals with PC-12. Put plainly: Neuroprotective activity against SNP induced rat PC-12 cells assessed as increase in cell viability at 10 uM preincubated for 2 hrs followed by SNP stimulation for 24 hrs by MTT assay relative to control. The data set is classed as functional.
The subject of data set [5] is PC-12. Nature of the data set: Neuroprotective activity against SNP induced rat PC-12 cells assessed as increase in cell viability at 1 uM preincubated for 2 hrs followed by SNP stimulation for 24 hrs by MTT assay relative to control. The data set is classed as functional.
Data set [6] in a line: Metabolic stability in human plasma assessed as parent compound remaining at 200 uM measured after 15 min by LC-MS/MS analysis relative to control. In kind it is ADME, cell-free. To be noted: read-out: Stability.
Data set [7] in a line: Plasma protein binding in Sprague-Dawley rat plasma at 10 uM incubated for 6 hrs by LC-MS/MS based equilibrium dialysis method. To be noted: read-out: PPB (converted). In kind it is ADME, cell-free.
Data set [8] can be described thus: Metabolic stability in human plasma assessed as half life at 200 uM by LC-MS/MS analysis relative to control. The data set is classed as ADME, cell-free.
The target in data set [9] is Voltage-gated inwardly rectifying potassium channel KCNH2 (Homo sapiens, UniProt Q12809). Put plainly: Inhibition of hERG channel expressed in HEK293 cells at -80 mV holding potential by automated patch clamp method. In kind it is toxicity, cell-based. On the technique in general: hERG is a cardiac potassium channel; its block is linked to QT prolongation.
A short description of data set [10]: Acute toxicity in BALB/c mouse assessed as survival rate at 175 mg/kg, ip measured after 7 days. The data set is classed as organism-based. To be noted: in vivo, 168 h, time 7 day.
Data set [11] is described as follows: Acute toxicity in BALB/c mouse assessed as survival rate at 1000 mg/kg, ip measured after 7 days. The data set is classed as organism-based. To be noted: in vivo, 168 h, time 7 day.
Data set [12] in a line: Tmax in Sprague-Dawley rat at 5 mg/kg, iv measured upto 24 hrs by LC-MS/MS analysis. Conditions: in vivo. The data set is classed as ADME, organism-based.
A short description of data set [13]: Cmax in Sprague-Dawley rat at 5 mg/kg, ip measured at 2 hrs by LC-MS/MS analysis. In kind it is ADME, organism-based. Further details: dose 5 mg/kg, time 2 hrs, route ip. To be noted: in vivo.
Data set [14] can be described thus: Cmax in Sprague-Dawley rat at 5 mg/kg, iv measured upto 24 hrs by LC-MS/MS analysis. In kind it is ADME, organism-based. Also on record: dose 5 mg/kg, time < 24 hrs, route iv. Conditions: in vivo.
The nature of data set [15]: AUC (0 to infinity) in Sprague-Dawley rat at 5 mg/kg, ip measured upto 24 hrs by LC-MS/MS analysis. Further details: time < 24 hrs, dose 5 mg/kg, route ip. To be noted: in vivo. The data set is classed as ADME, organism-based.
Data set [16] is described as follows: MRT in Sprague-Dawley rat at 5 mg/kg, ip measured upto 24 hrs by LC-MS/MS analysis. In kind it is ADME, organism-based. Conditions: in vivo.
Data set [17] can be described thus: MRT in Sprague-Dawley rat at 5 mg/kg, iv measured upto 24 hrs by LC-MS/MS analysis. In kind it is ADME, organism-based. Conditions: in vivo.
The subject of data set [18] is Rattus norvegicus. Put plainly: Neuroprotective activity in Sprague-Dawley rat model of middle cerebral artery occlusion-induced ischemia reperfusion injury assessed as decrease in serum MDA level at 3 to 30 mg/kg, ip preincubated for 1 hrs followed by MCAO operation and further incubated with compound for 4 hrs after reperfusion. The data set is classed as functional, organism-based. To be noted: dose 3-30 mg/kg, time 5.0 hrs.

The test system of data set [19] is PC-12. Nature of the data set: Neuroprotective activity against SNP-induced apoptotic rat PC-12 cells assessed as restoration of cell number at 10 uM preincubated for 2 hrs followed by SNP stimulation for 24 hrs by Hoechst 33258 staining based fluorescence microscopic analysis. The data set is classed as functional.
In data set [20] the target is T1, Nuclear factor erythroid 2-related factor 2 (Rattus norvegicus) (UniProt O54968).
T1 sequence (whole entry): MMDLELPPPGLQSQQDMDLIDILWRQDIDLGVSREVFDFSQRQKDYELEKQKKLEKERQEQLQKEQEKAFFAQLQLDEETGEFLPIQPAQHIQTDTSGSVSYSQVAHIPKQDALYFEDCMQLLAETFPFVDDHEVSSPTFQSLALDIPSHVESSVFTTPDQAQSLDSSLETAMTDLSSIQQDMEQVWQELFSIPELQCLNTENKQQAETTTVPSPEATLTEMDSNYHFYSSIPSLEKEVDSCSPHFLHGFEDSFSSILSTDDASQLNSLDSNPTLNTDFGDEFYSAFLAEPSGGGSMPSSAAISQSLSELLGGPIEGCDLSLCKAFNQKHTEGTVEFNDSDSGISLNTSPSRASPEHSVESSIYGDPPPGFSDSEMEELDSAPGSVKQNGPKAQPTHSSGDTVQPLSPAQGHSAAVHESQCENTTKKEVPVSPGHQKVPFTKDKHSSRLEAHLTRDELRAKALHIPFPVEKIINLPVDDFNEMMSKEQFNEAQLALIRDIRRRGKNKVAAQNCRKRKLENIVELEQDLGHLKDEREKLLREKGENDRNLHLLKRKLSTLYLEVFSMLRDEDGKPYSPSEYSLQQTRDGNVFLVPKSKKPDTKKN
Nature of the data set: Activation of Nrf2 pathway in rat PC-12 cells assessed as increase in HO-1 level at 2.5 to 10 uM measured after 3 hrs by Western blot analysis. To be noted: filed as activator, dose 2.5-10 µM. The data set is classed as cell-based.

The target in data set [21] is T1, Nuclear factor erythroid 2-related factor 2 (Rattus norvegicus). Put plainly: Activation of Nrf2 pathway in rat PC-12 cells assessed as increase in GCLC level at 2.5 to 10 uM measured after 3 hrs by Western blot analysis. In kind it is cell-based. To be noted: filed as activator, dose 2.5-10 µM.
The target is the same in data set [22]. Put plainly: Activation of Nrf2 pathway in rat PC-12 cells assessed as reversal of ML385 induced inhibition of Nrf2 protein expression at 10 uM measured after 3 hrs in the presence of Nrf2 signalling inhibitor ML385 by Western blot analysis. The data set is classed as cell-based. To be noted: filed as activator.

Activity calls are given as the source filed them.

Voltage-gated inwardly rectifying potassium channel KCNH2, sequence (Q12809 whole entry): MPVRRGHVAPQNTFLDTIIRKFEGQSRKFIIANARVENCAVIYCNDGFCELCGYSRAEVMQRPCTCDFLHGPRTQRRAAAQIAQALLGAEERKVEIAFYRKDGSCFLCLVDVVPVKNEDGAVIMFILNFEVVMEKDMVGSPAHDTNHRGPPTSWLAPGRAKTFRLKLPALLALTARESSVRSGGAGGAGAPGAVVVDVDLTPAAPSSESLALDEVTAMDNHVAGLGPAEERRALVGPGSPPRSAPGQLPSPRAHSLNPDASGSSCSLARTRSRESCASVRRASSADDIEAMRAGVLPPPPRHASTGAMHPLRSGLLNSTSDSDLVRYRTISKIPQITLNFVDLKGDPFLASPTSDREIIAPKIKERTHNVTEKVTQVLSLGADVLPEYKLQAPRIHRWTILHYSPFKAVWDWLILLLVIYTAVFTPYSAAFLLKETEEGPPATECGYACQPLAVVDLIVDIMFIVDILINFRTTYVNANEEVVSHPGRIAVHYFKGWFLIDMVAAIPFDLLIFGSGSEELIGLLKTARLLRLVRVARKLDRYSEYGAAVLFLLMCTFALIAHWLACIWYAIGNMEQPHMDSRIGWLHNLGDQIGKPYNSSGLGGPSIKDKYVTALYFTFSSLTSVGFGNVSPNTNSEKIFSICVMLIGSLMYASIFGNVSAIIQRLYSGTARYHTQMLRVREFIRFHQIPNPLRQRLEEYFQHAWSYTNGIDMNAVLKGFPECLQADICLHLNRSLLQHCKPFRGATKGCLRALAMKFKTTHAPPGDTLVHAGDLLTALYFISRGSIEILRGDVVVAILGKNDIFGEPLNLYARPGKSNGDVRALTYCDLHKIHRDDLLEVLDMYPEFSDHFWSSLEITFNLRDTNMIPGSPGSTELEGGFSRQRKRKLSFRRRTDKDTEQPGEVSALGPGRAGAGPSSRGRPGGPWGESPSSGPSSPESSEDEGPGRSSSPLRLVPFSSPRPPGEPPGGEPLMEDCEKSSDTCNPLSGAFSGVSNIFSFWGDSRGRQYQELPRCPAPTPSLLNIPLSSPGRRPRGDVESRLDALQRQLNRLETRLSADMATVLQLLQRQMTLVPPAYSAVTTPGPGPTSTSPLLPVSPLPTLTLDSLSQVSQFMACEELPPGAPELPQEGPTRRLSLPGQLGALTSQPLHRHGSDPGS

`Cc1cc(C)cc(-n2nc(-c3ccc(C(F)(F)F)cc3O)nc2-c2ccccc2O)c1`: the fraction unbound at 6 h, 10 µM in [1] is 0.0006; in data set [7], 0.0008. For the same molecule, the half-maximal inhibitory concentration (IC50) in [2] is 127 µM; in data set [3] it was 263 µM; in data set [9], greater than 30 µM. Besides, the Activity in data set [4] was 105.13%; in data set [5], 76.86%; in data set [10] it was “Non-Toxic”; in data set [11] it was “Toxic”. In addition, the remaining at 0.25 h, 200 µM in data set [6] was found to be 95.8%. The half-life at 200 µM in data set [8] is greater than 8.82 h. The Tmax in data set [12] is 4.8 min. Moreover, the peak concentration (Cmax) came to 323 ng/mL in data set [13] and 6910 ng/mL in data set [14]. For the same molecule, the AUC(0-inf) in [15] stood at 2930 ng·h/mL. The MRT in data set [16] came to 16.5 h; in [17], 2.84 h. The result in data set [18], in [19], in data set [20], in data set [21] and in [22] was Active.

One may read the IC50 as the point on the concentration scale where inhibition reaches its midpoint. What is called half-life is the time needed for the level to fall by half in the phase considered. By Tmax is commonly meant the time at which the peak concentration occurs. In general, Cmax refers to the peak of the concentration-time curve. A word on the AUC(0-inf): it is total exposure, with the tail of the curve extrapolated. The low end stands for less exposure, the high end for more exposure. Broadly, the MRT is a mean duration of stay, worked out from the concentration-time curve.

Source of the values: ChEMBL document CHEMBL5143655, “Synthesis and biological evaluation of 1,2,4-triazole derivatives as potential Nrf2 activators for the treatment of cerebral ischemic injury” (Eur J Med Chem, 2022).
